In the NIST ThermoML archive (doi:10.1021/je700647x):

Assays:
[1] = Ring tensiometer
[2] = xn = mol fraction of the nth substance listed; conditions: Ring tensiometer

CCO [ethanol]
Conditions | surface tension liquid-gas [mN/m]
[1], 298.15 K | 21.85

CCO [ethanol] + CN(CCO)CCO
Conditions | surface tension liquid-gas [mN/m]
[2], 298.15 K, x2 = 0 | 21.85

CCO [ethanol] + OCCN(CCO)CCO
Conditions | surface tension liquid-gas [mN/m]
[2], 298.15 K, x2 = 0 | 21.85

OCCN(CCO)CCO [triethanolamine]
[1]
Conditions | surface tension liquid-gas [mN/m]
288.15 K | 47.64
293.15 K | 46.77
298.15 K | 45.88
303.15 K | 45.16
308.15 K | 44.42
313.15 K | 43.4

OCCN(CCO)CCO [triethanolamine] + CCO
surface tension liquid-gas [mN/m], [2]
Conditions | x1 = 0.0795 | x1 = 0.1461 | x1 = 0.2209 | x1 = 0.3266 | x1 = 0.4581 | x1 = 0.6263 | x1 = 0.7725 | x1 = 0.8489 | x1 = 0.9304 | x1 = 1
288.15 K | 24.1 | 25.4 | 27.12 | 29.68 | 33.17 | 37.65 | 41.56 | 43.57 | 45.78 | 47.64
293.15 K | 23.69 | 25.02 | 26.77 | 29.34 | 32.72 | 37.11 | 40.89 | 42.86 | 44.96 | 46.77
298.15 K | 23.32 | 24.7 | 26.42 | 28.97 | 32.29 | 36.57 | 40.24 | 42.16 | 44.22 | 45.88
303.15 K | 23.02 | 24.41 | 26.11 | 28.61 | 31.87 | 36.02 | 39.61 | 41.47 | 43.47 | 45.16
308.15 K | 22.71 | 24.12 | 25.78 | 28.21 | 31.42 | 35.48 | 39 | 40.83 | 42.77 | 44.42
313.15 K | 22.35 | 23.81 | 25.46 | 27.79 | 30.89 | 34.82 | 38.21 | 39.97 | 41.84 | 43.4
